# PMC6767256, “Leishmania mexicana Trypanothione Reductase Inhibitors: Computational and Biological Studies” (Molecules, 2019)
# Read-outs that look alike come from different tables or passages of the source.
# Experiments:
# recombinant LmTR (rLmTR) = assay: Inhibition of rLmTR activity (NADPH oxidation at 340 nm); assay type: biochemical, Leishmania mexicana; settings: 10% DMSO
# Description: (§1) The enzymatic activity of rLmTR was assayed spectrophotometrically as previously described. The reaction mixture contained 40 mM Hepes, pH 7.5, 1 mM EDTA, 150 µM NADPH, and 30 ng rLmTR. The reaction was initiated by adding the substrate (T[S]2) at 400 µM and was allowed to proceed for 1 min. NADPH oxidation was followed at 340 nm, monitored every 20 s, in a Synergy™ H1 microplate reader (Biotek Instruments, Inc. Winooski, VT, USA). The decrease in the absorbance at 340 nm was used to determine the moles of substrate consumed. One unit of enzyme activity is defined as the amount of enzyme required to convert 1 μmol of NADPH to NADP per minute at 25 °C [42].
# (§2) Compounds ZINC04684558, ZINC09642432, ZINC12151998, ZINC14970552, and ZINC11841871 with affinity to the LmTR catalytic site with docking scores of at most −5.29 kcal/mol were selected to evaluate their in vitro inhibition of rLmTR activity. […] The assay was carried out following the conditions previously described to determine the rLmTR activity. The percentage of inhibition was obtained using the following equation:(1) % Inhibition=[…] where A0 is the enzyme activity without inhibitor and A1 is the enzyme activity in the presence of inhibitor.
# [1] = test system: L. mexicana promastigotes strain MNYC/BZ/62/M379; assay: Activity against L. mexicana promastigotes (resazurin method); settings: for SI (selectivity index): SI = CC50/IC50 (J774.2 / L. mexicana promastigotes)
# Description: After incubation for 48 h at 26 °C, 20 µL of 2.5 mM resazurin solution was added to each well and incubated for 4 h. […] All assays were carried out in triplicate. The half-maximal inhibitory concentration (IC50) was determined by Probit analysis.
# [2] = Macrophage cytotoxicity assay (resazurin); settings: mouse
# Description: The cytotoxicity of the five selected compounds was tested using murine macrophage cell line J774.2 (ATCC ®TIB-67). […] For this, macrophages were seeded (5 × 10^4 cells/well) in 96-well flat-bottomed microplates and allowed to adhere for 24 h at 37 °C in 5% CO2. […] Thereafter, 20 µL of a 2.5 mM resazurin solution was added to each well, and the plates were incubated for another 4 h. The fluorescence emission was measured as described above. The half-maximal cytotoxicity concentration (CC50) was determined by Probit analysis.
# [3] = Solubility in the enzyme assay (observation); assay type: physicochemical; settings: prevented testing at higher concentration in the rLmTR assay
# Description: as §2
# rLmTR = assay: Kinetic characterization of rLmTR with substrate T[S]2; assay type: biochemical, Leishmania mexicana; settings: T[S]2 as substrate, 150 µM NADPH
# Description: as §1
# The kinetic data were analyzed by linear regression fit to Michaelis–Menten kinetics and linearized by the double reciprocal transformation of Lineweaver and Burk.
# [4] = Leishmania mexicana, 48 h, read-out: IC50 (leishmanicidal activity), L. mexicana promastigotes, 48 h at 26 °C
Structure (SMILES),% Inhibition of rLmTR activity (recombinant LmTR (rLmTR); compound at 300 µM) [%],"IC50 [1, 4] [µM]",SI (selectivity index) [1],CC50 at 24 h ([2]; J774.2 macrophage cell line) [µM],% Inhibition of rLmTR activity (recombinant LmTR (rLmTR); compound at 150 µM) [%],Solubility [3],Km (rLmTR) [µM],"IC50 ([1]; read-out: IC50 (leishmanicidal activity), L. mexicana promastigotes, 48 h at 26 °C) [µM]",% Inhibition of rLmTR activity (recombinant LmTR (rLmTR); compound at 100 µM) [%],CC50 at 24 h [2] [µM]
CC1(C)C[C@H](NC(=O)c2cnn(-c3ncc4c(n3)-c3ccccc3CC4)c2C2CC2)CCO1 [ZINC14970552],35.7,147,1.4,219,–,–,–,–,–,–
CC(=O)N[C@@H]1c2ccccc2C2(CCN(C(=O)c3n[nH]c4ccccc34)CC2)[C@H]1OCc1ccccc1 [ZINC11841871],–,159,0.6,103,39.5,poor solubility,–,–,–,–
"N[C@@H](CCC(=O)N[C@H]1CSSC[C@H](NC(=O)CC[C@H](N)C(=O)O)C(=O)NCC(=O)NCCCNCCCCNC(=O)CNC1=O)C(=O)O [T[S]2, trypanothione disulfide]",–,–,–,–,–,–,173,–,–,–
Cc1nnc(N2CCN(C(=O)Nc3ccc(F)cc3F)CC2)c2nn(-c3ccccc3)c(C)c12 [ZINC09642432],40.1,> 200,1.5,335,–,–,–,222,–,–
O=C(NCc1ccc2ncccc2c1)c1cnn(-c2ncc3c(n2)-c2ccccc2CCC3)c1C1CC1 [ZINC12151998],–,58,0.9,53,–,poor solubility,–,–,32.9,–
"CCCCCCCCCCCCCCCCOP(=O)([O-])OCC[N+](C)(C)C [Miltefosine, reference compound]",–,2.98,47,–,–,–,–,–,–,141
"C[C@@H]1[C@H](O)[C@@H](C)/C=C/C=C/C=C/C=C/C=C/C=C/C=C/[C@H](O[C@@H]2O[C@H](C)[C@@H](O)[C@H](N)[C@@H]2O)C[C@@H]2O[C@](O)(C[C@@H](O)C[C@@H](O)[C@H](O)CC[C@@H](O)C[C@@H](O)CC(=O)O[C@H]1C)C[C@H](O)[C@H]2C(=O)O [Amphotericin B, reference compound]",–,0.11,67,–,–,–,–,–,–,7.4
